Laboratory results: PubChem BioAssay AID330 (DTP/NCI, 2004)
Values joined by “and” are separate entries in the source; they are usually repeats but may differ in a detail not shown here. Equal entries are not always repeated. Inconclusive results and toxic doses are left out.

System: P388 leukemia ip, CD2F1 mice, survival T/C
Experiment: NCI In Vivo Anticancer Drug Screen. Data for tumor model P388 Leukemia (intraperitoneal) in CD2F1 (CDF1) mice
Conditions: endpoint: median survival time, higher = longer survival
Summary of the method: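 Mice carrying the transplanted tumor received test compound or vehicle. Survival was recorded in each group, and the value is the treated-group measurement divided by that of the vehicle-treated control group.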

[1] = dose: 50.0 mg/kg/injection, schedule: Q01DX005 (ip), vehicle: saline with Tween-80
[2] = dose: 60.0 mg/kg/injection, schedule: Q01DX005 (ip), vehicle: saline with Tween-80
[3] = dose: 120.0 mg/kg/injection, schedule: Q01DX005 (ip), vehicle: saline with Tween-80
[4] = dose: 240.0 mg/kg/injection, schedule: Q01DX005 (ip), vehicle: saline with Tween-80
[5] = dose: 50.0 mg/kg/injection, schedule: Q01DX005 (ip), vehicle: Klucel (hydroxypropylcellulose) (HPC)
[6] = dose: 100.0 mg/kg/injection, schedule: Q01DX005 (ip), vehicle: Klucel (hydroxypropylcellulose) (HPC)
[7] = dose: 200.0 mg/kg/injection, schedule: Q01DX005 (ip), vehicle: Klucel (hydroxypropylcellulose) (HPC)
[8] = dose: 50.0 mg/kg/injection, schedule: Q01DX009 (ip), vehicle: Klucel (hydroxypropylcellulose) (HPC)
[9] = dose: 100.0 mg/kg/injection, schedule: Q01DX009 (ip), vehicle: Klucel (hydroxypropylcellulose) (HPC)
[10] = dose: 200.0 mg/kg/injection, schedule: Q01DX009 (ip), vehicle: Klucel (hydroxypropylcellulose) (HPC)

CC(C)(C)OC(=O)NC(CCCCNC(=O)OCc1ccccc1)C(=O)NC(CCCCNC(=O)OCc1ccccc1)C(=O)NC(CCCCNC(=O)OCc1ccccc1)C(=O)OCc1ccccc1 (centres undefined)
T/C (dose: 12.5 mg/kg/injection, schedule: Q01DX005 (ip), vehicle: saline with Tween-80): 100 % of control
T/C (dose: 25.0 mg/kg/injection, schedule: Q01DX005 (ip), vehicle: saline with Tween-80): 97 % of control
T/C [1]: 100 % of control

FC(F)(F)c1ccc2nc3c(nc2c1)-c1ccc(Br)c2cccc-3c12
T/C (dose: 50.0 mg/kg/injection, schedule: Q01DX009 (ip), vehicle: saline): 115 % of control
T/C (dose: 100.0 mg/kg/injection, schedule: Q01DX009 (ip), vehicle: saline): 101 % of control
T/C (dose: 200.0 mg/kg/injection, schedule: Q01DX009 (ip), vehicle: saline): 99 % of control

O=C(O)c1ccc2n[se]nc2c1
T/C [2]: 96 % of control
T/C [3]: 105 % of control
T/C [4]: 97 % of control

COc1cc(C(=O)NCC(=O)NN=C(C)C)cc(OC)c1OC
T/C [5]: 104 % of control
T/C [6]: 95 % of control
T/C [7]: 107 % of control

Cc1ccc(C2(O)CC3CCC(C2)N3C)cc1 (centres undefined)
T/C (dose: 100.0 mg/kg/injection, schedule: Q01DX001 (ip), vehicle: Klucel (hydroxypropylcellulose) (HPC)): 103 % of control
T/C (dose: 200.0 mg/kg/injection, schedule: Q01DX001 (ip), vehicle: Klucel (hydroxypropylcellulose) (HPC)): 110 % of control
T/C (dose: 400.0 mg/kg/injection, schedule: Q01DX001 (ip), vehicle: Klucel (hydroxypropylcellulose) (HPC)): 101 % of control

O=[N+]([O-])c1cccnc1-n1nnc2c([N+](=O)[O-])cccc21
T/C [2]: 99 % of control
T/C [3]: 100 % of control
T/C [4]: 102 % of control

CCC(c1ccc(OCc2ccccc2)cc1)c1cc2c(cc1OC)OCO2 (centres undefined)
T/C (dose: 25.0 mg/kg/injection, schedule: Q01DX005 (ip), vehicle: distilled water + Tween-80): 98 % of control
T/C (dose: 50.0 mg/kg/injection, schedule: Q01DX005 (ip), vehicle: distilled water + Tween-80): 92 % of control
T/C (dose: 100.0 mg/kg/injection, schedule: Q01DX005 (ip), vehicle: distilled water + Tween-80): 86 % of control
T/C (dose: 200.0 mg/kg/injection, schedule: Q01DX005 (ip), vehicle: distilled water + Tween-80): 88 % of control

CCCCCCCCCCSCC(CO)NC(=O)/C=C/c1c(C)[nH]c(=O)[nH]c1=O (centres undefined)
T/C (dose: 3.13 mg/kg/injection, schedule: Q01DX009 (ip), vehicle: distilled water + Tween-80): 104 % of control
T/C (dose: 6.25 mg/kg/injection, schedule: Q01DX009 (ip), vehicle: distilled water + Tween-80): 112 % of control
T/C (dose: 6.25 mg/kg/injection, schedule: Q01DX009 (ip), vehicle: other): 114 % of control and 117 % of control
T/C (dose: 12.5 mg/kg/injection, schedule: Q01DX009 (ip), vehicle: distilled water + Tween-80): 110 % of control
T/C (dose: 12.5 mg/kg/injection, schedule: Q01DX009 (ip), vehicle: other): 114 % of control and 115 % of control
T/C (dose: 25.0 mg/kg/injection, schedule: Q01DX009 (ip), vehicle: distilled water + Tween-80): 99 % of control and 110 % of control
T/C (dose: 50.0 mg/kg/injection, schedule: Q01DX009 (ip), vehicle: distilled water + Tween-80): 106 % of control and 112 % of control
T/C (dose: 50.0 mg/kg/injection, schedule: Q01DX009 (ip), vehicle: other): 93 % of control
T/C (dose: 100.0 mg/kg/injection, schedule: Q01DX009 (ip), vehicle: distilled water + Tween-80): 108 % of control
T/C (dose: 100.0 mg/kg/injection, schedule: Q01DX009 (ip), vehicle: other): 155 % of control

CC(=O)CC(C)(C)C(C#N)c1ccccc1 (centres undefined)
T/C (dose: 100.0 mg/kg/injection, schedule: Q04DX003 (ip), vehicle: Klucel (hydroxypropylcellulose) (HPC)): 99 % of control
T/C (dose: 200.0 mg/kg/injection, schedule: Q04DX003 (ip), vehicle: Klucel (hydroxypropylcellulose) (HPC)): 115 % of control
T/C (dose: 400.0 mg/kg/injection, schedule: Q04DX003 (ip), vehicle: Klucel (hydroxypropylcellulose) (HPC)): 98 % of control

CC1(C)CC(NCCCN(CCO)CCO)CC(C)(C)N1O
T/C (dose: 30.0 mg/kg/injection, schedule: Q01DX005 (ip), vehicle: saline): 96 % of control
T/C (dose: 60.0 mg/kg/injection, schedule: Q01DX005 (ip), vehicle: saline): 99 % of control
T/C (dose: 120.0 mg/kg/injection, schedule: Q01DX005 (ip), vehicle: saline): 96 % of control

Cc1cnc(C2OCCO2)c2cccc(N)c12
T/C [8]: 104 % of control
T/C [9]: 105 % of control
T/C [10]: 112 % of control

Cc1ccc(OP(=O)(Oc2ccc(C)cc2)Oc2ccc(C)cc2)cc1.Cc1ccc(OP(=O)(Oc2ccc(C)cc2)Oc2ccc(C)cc2)cc1.Cc1ccc(OP(=O)(Oc2ccc(C)cc2)Oc2ccc(C)cc2)cc1.Cc1ccc(OP(=O)(Oc2ccc(C)cc2)Oc2ccc(C)cc2)cc1.[Ni+2].[O-][Cl+3]([O-])([O-])O
T/C (dose: 20.0 mg/kg/injection, schedule: Q01DX001 (ip), vehicle: Klucel (hydroxypropylcellulose) (HPC)): 100 % of control
T/C (dose: 40.0 mg/kg/injection, schedule: Q01DX001 (ip), vehicle: Klucel (hydroxypropylcellulose) (HPC)): 106 % of control
T/C (dose: 80.0 mg/kg/injection, schedule: Q01DX001 (ip), vehicle: Klucel (hydroxypropylcellulose) (HPC)): 97 % of control

O=C(NC1=NN(Cc2ccccc2)C(=O)C1)c1ccc(S(=O)(=O)F)cc1
T/C [2]: 113 % of control
T/C [3]: 121 % of control

Nc1nc(S)cc(=O)[nH]1
T/C (dose: 50.0 mg/kg/injection, schedule: Q01DX009 (ip), vehicle: saline with Tween-80): 91 % of control
T/C (dose: 100.0 mg/kg/injection, schedule: Q01DX009 (ip), vehicle: saline with Tween-80): 108 % of control
T/C (dose: 200.0 mg/kg/injection, schedule: Q01DX009 (ip), vehicle: saline with Tween-80): 94 % of control
T/C (dose: 400.0 mg/kg/injection, schedule: Q01DX009 (ip), vehicle: saline with Tween-80): 99 % of control

CSC(=S)Nc1nc2ccc(Cl)cc2s1
T/C (dose: 6.25 mg/kg/injection, schedule: Q01DX009 (ip), vehicle: Klucel (hydroxypropylcellulose) (HPC)): 104 % of control
T/C (dose: 12.5 mg/kg/injection, schedule: Q01DX009 (ip), vehicle: Klucel (hydroxypropylcellulose) (HPC)): 111 % of control
T/C (dose: 25.0 mg/kg/injection, schedule: Q01DX009 (ip), vehicle: Klucel (hydroxypropylcellulose) (HPC)): 88 % of control

Cc1ccc(S(=O)(=O)N=S(C)(=O)CCCl)cc1 (centres undefined)
T/C (dose: 25.0 mg/kg/injection, schedule: Q04DX003 (ip), vehicle: saline): 100 % of control
T/C (dose: 50.0 mg/kg/injection, schedule: Q04DX003 (ip), vehicle: saline): 107 % of control
T/C (dose: 100.0 mg/kg/injection, schedule: Q04DX003 (ip), vehicle: saline): 100 % of control
T/C (dose: 100.0 mg/kg/injection, schedule: Q04DX003 (ip), vehicle: suspension in saline): 94 % of control

CCCCCCCCCCCC[N+](C)([O-])Cc1ccccc1 (centres undefined)
T/C [8]: 89 % of control

O=C(CC1(O)C(=O)Nc2ccccc21)c1ccc(Br)cc1 (centres undefined)
T/C [1]: 108 % of control
T/C (dose: 100.0 mg/kg/injection, schedule: Q01DX005 (ip), vehicle: saline with Tween-80): 103 % of control
T/C (dose: 200.0 mg/kg/injection, schedule: Q01DX005 (ip), vehicle: saline with Tween-80): 100 % of control

O=C(c1ccccc1)c1nonc1C(=O)c1ccccc1
T/C (dose: 100.0 mg/kg/injection, schedule: Q01DX001 (ip), vehicle: saline with Tween-80): 95 % of control
T/C (dose: 200.0 mg/kg/injection, schedule: Q01DX001 (ip), vehicle: saline with Tween-80): 104 % of control
T/C (dose: 400.0 mg/kg/injection, schedule: Q01DX001 (ip), vehicle: saline with Tween-80): 95 % of control

COc1cc2c(cc1OC)[C@H]1[C@H](C)c3ccc4c(c3CN1CC2)OCO4
T/C (dose: 12.5 mg/kg/injection, schedule: Q04DX002 (ip), vehicle: Klucel (hydroxypropylcellulose) (HPC)): 97 % of control
T/C (dose: 25.0 mg/kg/injection, schedule: Q04DX002 (ip), vehicle: Klucel (hydroxypropylcellulose) (HPC)): 95 % of control
T/C (dose: 50.0 mg/kg/injection, schedule: Q04DX002 (ip), vehicle: Klucel (hydroxypropylcellulose) (HPC)): 103 % of control and 106 % of control

NNC(=O)C(=O)NNC1CCCCC1
T/C [9]: 101 % of control
T/C [10]: 104 % of control

C=C(C)[C@]12CC(C)C34OC(/C=C\C=C\CCCCCCCCC)(O[C@@H]1[C@@H]3[C@@H]1O[C@]1(CO)[C@@H](O)[C@]1(O)C(=O)C(C)=C[C@@H]41)O2 (some centres undefined)
T/C (dose: 0.75 mg/kg/injection, schedule: Q01DX009 (ip), vehicle: alcohol): 160 % of control
T/C (dose: 1.5 mg/kg/injection, schedule: Q01DX009 (ip), vehicle: alcohol): 160 % of control and 163 % of control

O=C1c2ccccc2S(=O)(=O)N1Cc1ccccc1CN1C(=O)c2ccccc2S1(=O)=O
T/C [5]: 92 % of control
T/C [6]: 89 % of control
T/C [7]: 89 % of control
